Consider one cell line from the supplement of paper PMC10307832.

What all share (experiment): relative viability (nuclei count vs DMSO), 5 days (fraction); higher = more cells survive
Compound in the experiment “Serdemetan + Vorinostat”: c1ccc2c(CCNc3ccc(Nc4ccncc4)cc3)c[nH]c2c1 [Serdemetan] + O=C(CCCCCCC(=O)Nc1ccccc1)NO [Vorinostat] (partner 1 µM)
The method in brief:
(§1)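 A single step with final 0.05% Triton X-100, 1% formaldehyde and 1 ug/ml Hoechst fixed the cells and stained nuclei 5 days after treatment. Lung cancer cell lines in 1536-well plates had been treated by pin tool the day after seeding with one drug alone or a fixed anchor-drug dose plus five library-drug doses (not always all listed) in √10 steps, and nuclei were counted on 4× images. Relative viability is the ratio of nuclei in treated wells to nuclei in vehicle wells, taken as the median of duplicate plates.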

Compound in the experiment “Serdemetan + Alpelisib”: c1ccc2c(CCNc3ccc(Nc4ccncc4)cc3)c[nH]c2c1 [Serdemetan] + Cc1nc(NC(=O)N2CCC[C@H]2C(N)=O)sc1-c1ccnc(C(C)(C)C(F)(F)F)c1 [Alpelisib] (partner 2 µM)
The method in brief:
as §1

Compound in the experiment “Selisistat + Crizotinib”: C1CC(C2=C(C1)C3=C(N2)C=CC(=C3)Cl)C(=O)N [Selisistat] + C[C@@H](Oc1cc(-c2cnn(C3CCNCC3)c2)cnc1N)c1c(Cl)ccc(F)c1Cl [Crizotinib] (partner 1 µM)
The method in brief: as §1

Compound in the experiment “Selisistat + Pemetrexed”: C1CC(C2=C(C1)C3=C(N2)C=CC(=C3)Cl)C(=O)N [Selisistat] + Nc1nc2[nH]cc(CCc3ccc(C(=O)N[C@@H](CCC(=O)O)C(=O)O)cc3)c2c(=O)[nH]1 [Pemetrexed] (partner 0.2 µM)
The method in brief: as §1

Regarding UMC-11, the relative viability with Serdemetan + Vorinostat (first compound 0.04 µM) turned out to be 0.412; in the experiment with Serdemetan + Vorinostat (first compound 0.1265 µM), 0.445; with Serdemetan + Vorinostat (first compound 0.4 µM) it was 0.37; with Serdemetan + Vorinostat (first compound 1.265 µM), 0.268; in the experiment with Serdemetan + Vorinostat (first compound 4 µM), 0.335; in the experiment with Serdemetan + Alpelisib (first compound 0.04 µM), 0.914. Besides, the relative viability with Serdemetan + Alpelisib (first compound 0.1265 µM) is 0.988; with Serdemetan + Alpelisib (first compound 0.4 µM), 1.01; in the experiment with Serdemetan + Alpelisib (first compound 1.265 µM), 0.751; in the experiment with Serdemetan + Alpelisib (first compound 4 µM), 0.769; with Selisistat + Crizotinib (first compound 0.4 µM) it was 0.812; with Selisistat + Crizotinib (first compound 1.265 µM), 0.653. Also, the relative viability came out at 0.683 with Selisistat + Crizotinib (first compound 4 µM); 0.69 in the experiment with Selisistat + Crizotinib (first compound 12.65 µM); 0.577 in the experiment with Selisistat + Crizotinib (first compound 40 µM); 0.767 in the experiment with Selisistat + Pemetrexed (first compound 0.4 µM); 0.749 with Selisistat + Pemetrexed (first compound 1.265 µM); 0.844 with Selisistat + Pemetrexed (first compound 4 µM). The figures for the relative viability with Selisistat + Pemetrexed (first compound 12.65 µM) and with Selisistat + Pemetrexed (first compound 40 µM) were 0.754 and 0.759, respectively.
